How the values were obtained:
Sprague-Dawley rats = assay: Blood pressure study in L-NAME (nitric oxide deficient) model of hypertension, dietary OPP; type: in vivo, rat
Excerpt: In order to determine the effect of OPP in blood pressure reduction, a method utilizing a nitric oxide (NO) deficient model of hypertension was used. This animal model involves the inhibition of endogenous NO production with L-NAME (N^G-nitro-L-arginine methyl ester) that leads to elevation in BP.
12 weeks old Sprague-Dawley rats were fed a standard laboratory rat diet, formulated to contain low n-3 polyunsaturated fatty acids (Glen Forrest Stock feeders, Glen Forrest, W.A., Australia). The OPP was provided as a drink at a rate of 30 ml/rat/day. OPP were provided at two different strengths—as liquid (1500 GAE) and in a concentrated liquid form at 3000 GAE (prepared using the freeze-dried preparation at 30,000 GAE). Rats were pre-treated for four weeks prior to challenge with L-NAME. […]
BP was monitored fortnightly by standard photoelectric tail-cuff procedure (IITC, Life Sciences, Woodlands Hills, Calif., USA) as described in detail previously. […] The pulse was detected as the cuff pressure was reduced and the pressure at which the first pulse detected was taken as the systolic blood pressure and computed automatically (IITC software package). The ambient temperature was carefully controlled (30° C.) and the average of 3-4 readings was taken as the final reading.

human LDL = assay: Copper-mediated LDL oxidation, conjugated diene formation; type: biochemical; details: for Lag time (mins), conjugated diene formation: control LDL 67 ± 12, means ± SD
Procedure: Blood from six healthy normocholesterolemic adult volunteers was collected into vacutainer tubes containing EDTA and centrifuged (1000×g for 15 min) to isolate plasma. LDL was isolated by density gradient centrifugation in a Beckman Ultracentrifuge using a 50.2 Ti rotor, based on the method of Sundram et al. (2). The LDL layer following sequential isolation at density 1.063 kg/L was removed and dialyzed against 4 L of PBS, pH 7.4 and purged with nitrogen for 12-18 h. After dialysis, the cholesterol concentration in the pooled LDL sample was determined using an automated Cholesterol assay. The LDL fraction was used immediately or immediately stored under nitrogen at 4° C. and analyzed for LDL oxidation within 48 h.
To evaluate the ability of OPP to inhibit copper (Cu) mediated LDL oxidation, conjugated dienes (CD) were continually monitored at 5-min intervals at 37° C. by UV absorption at 234 nm. LDL oxidation was initiated by addition of copper sulfate at a final concentration of 6 μmol/L to 90 μg of LDL cholesterol in a final volume of 1 mL. The purified test compounds (catechin obtained from Sigma Chemical) and OPP extracts were added immediately before the addition of the oxidant. The extracts were added at a final concentration range of 0.25-1.0 μmol/L GAB and the purified compounds at a final concentration of 0.25 or 0.5 μmol/L. All LDL oxidations were performed in triplicate. The lag time in the presence or absence of the test compounds was determined as the intercept of the slopes for the lag and propagation phases. This was compared with the control oxidized LDL to determine the percentage of LDL oxidation inhibition.

COC(=O)[C@@H](N)CCCNC(=N)N[N+](=O)[O-] [L-NAME, N^G-nitro-L-arginine methyl ester]
initial rise in BP on introduction of L-NAME (Sprague-Dawley rats; L-NAME 10 mg/Kg, OPP pre-treatment 4 weeks): 18 mmHg | final BP values (Sprague-Dawley rats; conclusion of experiment, L-NAME 10 then 15 mg/Kg, OPP drink 30 ml/rat/day, tail-cuff systolic BP, n=12): 176±2.5 mmHg

catechin
Lag time (mins), conjugated diene formation (human LDL; 0.25 μmol/L): 87 ± 13 min | LDL lag phase lengthened / increase in lag time relative to control LDL (human LDL; 0.5 μmol/L): 55% | Lag time (mins), conjugated diene formation (human LDL; 0.5 μmol/L): 104 ± 10 min

Reference: patent US8771764B2, “Composition and method for improving vascular health” (Malaysian Palm Oil Board, priority 2009, dated 2014)
